The results in this text go back to patent US8063071B2 (GlaxoSmithKline, LLC, priority 2007, dated 2011).

As a reminder, the inhibition is the percentage by which the read-out fell short of the control.

Counter-ions that a name gives are not always drawn.

For assay [1], the system named is human monocyte stimulated cytokine production (TNF-α). The experiment in a line: Monocyte assay (LPS-stimulated TNF-α production). The assay is classed as cell-based. As to conditions: for IC50: 24 h, 200 ng/mL LPS, TNF-α by ELISA; for inhibition at 0.3 µM: read-out: inhibition at 300 nM in the monocyte assay. As to the method:
Effect of IKK-β inhibition on human monocyte stimulated cytokine production was assessed as follows: Monocytes were isolated from heparinized whole blood by Ficoll gradient, followed by purification of CD14+ cells using MACS magnetic cell separation beads. Isolated monocytes were then adhered to 96-well culture plates at 1×10^6 cells/mL in RPMI 1640 10% FBS (JRH Biosciences, Lenexa Kans.) for 2 h. Test compounds are added to the wells 30 minutes prior to stimulation with a final vehicle concentration of 0.1% DMSO. Monocytes were activated by the addition of 200 ng/mL endotoxin (LPS; E. coli serotype 026:B6)(Sigma, St. Louis, Mo.) and incubated for 24 hrs at 37 C. Cell-free supernates were analyzed by ELISA for TNF-α using Pharmingen matched pair Abs. Viability of the cells was determined by 10% trypan blue exclusion.
Background: ELISA stands for enzyme-linked immunosorbent assay.

For assay [2], the target named is T1, Recombinant human IKKβ (residues 1-737) (Homo sapiens, UniProt O14920).
T1 construct: Recombinant human IKKβ (residues 1-737); GST (C); made in house
T1 sequence (O14920 1-737): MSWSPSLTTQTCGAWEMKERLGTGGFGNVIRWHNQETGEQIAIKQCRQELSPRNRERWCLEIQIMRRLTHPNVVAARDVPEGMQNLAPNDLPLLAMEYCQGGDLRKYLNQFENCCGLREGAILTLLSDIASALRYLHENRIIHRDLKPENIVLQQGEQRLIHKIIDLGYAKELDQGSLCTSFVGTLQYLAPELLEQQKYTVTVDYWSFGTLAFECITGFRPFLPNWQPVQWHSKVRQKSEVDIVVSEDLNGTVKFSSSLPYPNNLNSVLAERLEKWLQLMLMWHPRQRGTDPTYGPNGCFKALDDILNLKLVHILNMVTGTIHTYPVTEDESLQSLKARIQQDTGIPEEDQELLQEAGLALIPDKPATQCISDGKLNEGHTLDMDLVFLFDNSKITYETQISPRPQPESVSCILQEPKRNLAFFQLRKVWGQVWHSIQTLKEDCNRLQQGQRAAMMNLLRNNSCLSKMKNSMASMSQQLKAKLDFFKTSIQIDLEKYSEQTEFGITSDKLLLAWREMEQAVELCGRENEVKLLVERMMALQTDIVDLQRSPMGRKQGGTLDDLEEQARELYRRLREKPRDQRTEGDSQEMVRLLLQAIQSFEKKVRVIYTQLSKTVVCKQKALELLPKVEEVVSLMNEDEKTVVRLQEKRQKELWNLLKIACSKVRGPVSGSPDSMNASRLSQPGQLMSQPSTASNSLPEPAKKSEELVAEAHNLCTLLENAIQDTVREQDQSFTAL
The experiment in a line: IKK2 assay (TR-FRET). The assay is classed as biochemical. As to conditions: ATP 1 μM final, read-out: pIC50 against IKK2 (converted). The gist of the method:
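Baculovirus-expressed C-terminal GST-tagged IKKβ (0.5-5 nM final) in HEPES pH 7.4, MgCl2, CHAPS, DTT, BSA with 1.7% DMSO; 25 nM GST-IB substrate and 1 μM ATP, 15 min at room temperature. EDTA stop; phospho-Ser32/36 detected by Eu-antibody/APC-anti-GST TR-FRET, 665/620 nm ratio.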

Regarding `CCS(=O)(=O)N1CCC(c2c[nH]c3c(C(N)=O)cc(-c4cccc(CNC[C@H](C)O)c4)cc23)CC1` [Example 22, 3-[1-(ethylsulfonyl)-4-piperidinyl]-5-[3-({[(2S)-2-hydroxypropyl]amino}methyl)phenyl]-1H-indole-7-carboxamide], the figures for the IC50 in assay [1] and in assay [2] were at most 1.5 µM and at most 10 µM, respectively.

In the case of `CCNCc1cccc(-c2cc(C(N)=O)c3[nH]cc(C4CCN(S(=O)(=O)CC)CC4)c3c2)c1` [Example 23, 5-{3-[(ethylamino)methyl]phenyl}-3-[1-(ethylsulfonyl)-4-piperidinyl]-1H-indole-7-carboxamide], the figures for the IC50 in assay [1] and in assay [2] were at most 1.5 µM and at most 10 µM, respectively.

Consider `CCCNCc1cccc(-c2cc(C(N)=O)c3[nH]cc(C4CCN(S(=O)(=O)CC)CC4)c3c2)c1` [Example 24, 3-[1-(ethylsulfonyl)-4-piperidinyl]-5-{3-[(propylamino)methyl]phenyl}-1H-indole-7-carboxamide], for which the IC50 was over 1 µM in assay [1] and at most 10 µM in assay [2].

As to `CCS(=O)(=O)N1CCC(c2c[nH]c3c(C(N)=O)cc(-c4cccc(CNC(C)C)c4)cc23)CC1` [Example 25, 3-[1-(ethylsulfonyl)-4-piperidinyl]-5-(3-{[(1-methylethyl)amino]methyl}phenyl)-1H-indole-7-carboxamide], the IC50 is at most 1.5 µM in assay [1] and at most 10 µM in assay [2].

For `CCC(CC)NCc1cccc(-c2cc(C(N)=O)c3[nH]cc(C4CCN(S(=O)(=O)CC)CC4)c3c2)c1` [Example 26, 5-(3-{[(1-ethylpropyl)amino]methyl}phenyl)-3-[1-(ethylsulfonyl)-4-piperidinyl]-1H-indole-7-carboxamide], the IC50 in assay [1] is at most 1.5 µM; in assay [2], at most 10 µM.

`CCS(=O)(=O)N1CCC(c2c[nH]c3c(C(N)=O)cc(-c4ccc(CN5CCCCC5)cc4)cc23)CC1` [Example 27, 3-[1-(ethylsulfonyl)-4-piperidinyl]-5-[4-(1-piperidinylmethyl)phenyl]-1H-indole-7-carboxamide]: the results for the IC50 in assay [1] and in assay [2] were at most 1.5 µM and at most 10 µM, respectively.

For the compound `CCS(=O)(=O)N1CCC(c2c[nH]c3c(C(N)=O)cc(-c4cccc(CNC)c4)cc23)CC1` [Example 28, 3-[1-(ethylsulfonyl)-4-piperidinyl]-5-{3-[(methylamino)methyl]phenyl}-1H-indole-7-carboxamide], the IC50 in assay [1] is at most 1.5 µM; in assay [2] it was at most 10 µM.

For `CCS(=O)(=O)N1CCC(c2c[nH]c3c(C(N)=O)cc(-c4ccc(CN5CCOCC5)cc4)cc23)CC1` [Example 29, 3-[1-(ethylsulfonyl)-4-piperidinyl]-5-[4-(4-morpholinylmethyl)phenyl]-1H-indole-7-carboxamide], the IC50 in assay [1] is at most 1.5 µM; in assay [2], at most 10 µM.

On to `CCS(=O)(=O)N1CCC(c2c[nH]c3c(C(N)=O)cc(-c4ccc(CN)cc4)cc23)CC1` [Example 30, 5-[4-(aminomethyl)phenyl]-3-[1-(ethylsulfonyl)-4-piperidinyl]-1H-indole-7-carboxamide], for which the IC50 is at most 1.5 µM in assay [1] and at most 10 µM in assay [2].

For the compound `CCS(=O)(=O)N1CCC(c2c[nH]c3c(C(N)=O)cc(-c4cccc(CNC5CC5)c4)cc23)CC1` [Example 31, 5-{3-[(cyclopropylamino)methyl]phenyl}-3-[1-(ethylsulfonyl)-4-piperidinyl]-1H-indole-7-carboxamide], the IC50 was at most 1.5 µM in assay [1] and at most 10 µM in assay [2].

For the compound `CCS(=O)(=O)N1CCC(c2c[nH]c3c(C(N)=O)cc(-c4ccc5c(c4)C(NCC(C)C)CC5)cc23)CC1` (stereo not shown) [Example 33, 3-[1-(ethylsulfonyl)-4-piperidinyl]-5-{3-[(2-methylpropyl)amino]-2,3-dihydro-1H-inden-5-yl}-1H-indole-7-carboxamide trifluoroacetate], the results for the IC50 in assay [1] and in assay [2] were at most 1.5 µM and at most 10 µM, respectively.

`CCS(=O)(=O)N1CCC(c2c[nH]c3c(C(N)=O)cc(-c4cc(CNCCC#N)ccc4F)cc23)CC1` [Example 35, 5-(5-{[(2-cyanoethyl)amino]methyl}-2-fluorophenyl)-3-[1-(ethylsulfonyl)-4-piperidinyl]-1H-indole-7-carboxamide trifluoroacetate]: the IC50 in assay [1] is over 1 µM; in assay [2] it was at most 10 µM.

With `CCS(=O)(=O)N1CCC(c2c[nH]c3c(C(N)=O)cc(-c4cc(CNCC(F)(F)F)ccc4F)cc23)CC1` [Example 36, 3-[1-(ethylsulfonyl)-4-piperidinyl]-5-(2-fluoro-5-{[(2,2,2-trifluoroethyl)amino]methyl}phenyl)-1H-indole-7-carboxamide trifluoroacetate], the IC50 in assay [1] is over 1 µM; in assay [2], at most 10 µM.

On to `CCS(=O)(=O)N1CCC(c2c[nH]c3c(C(N)=O)cc(-c4ccc5c(c4)CNCC5)cc23)CC1` [Example 37, 3-[1-(ethylsulfonyl)-4-piperidinyl]-5-(1,2,3,4-tetrahydro-7-isoquinolinyl)-1H-indole-7-carboxamide trifluoroacetate], for which the IC50 in assay [1] is at most 1.5 µM; in assay [2] it was at most 10 µM.

As to `CCS(=O)(=O)N1CCC(c2c[nH]c3c(C(N)=O)cc(-c4cccc(CNCC(F)(F)F)c4)cc23)CC1` [Example 38, 3-[1-(ethylsulfonyl)-4-piperidinyl]-5-(3-{[(2,2,2-trifluoroethyl)amino]methyl}phenyl)-1H-indole-7-carboxamide trifluoroacetate], the IC50 was at most 1.5 µM in assay [1] and at most 10 µM in assay [2].

Regarding `CCS(=O)(=O)N1CCC(c2c[nH]c3c(C(N)=O)cc(-c4cccc(CN(C)CC(N)=O)c4)cc23)CC1` [Example 39, 5-(3-{[(2-amino-2-oxoethyl)(methyl)amino]methyl}phenyl)-3-[1-(ethylsulfonyl)-4-piperidinyl]-1H-indole-7-carboxamide trifluoroacetate], the inhibition at 0.3 µM in assay [1] fell in the range of 0 to 60%. The IC50 in assay [2] is at most 10 µM.

With `CCS(=O)(=O)N1CCC(c2c[nH]c3c(C(N)=O)cc(-c4csc(CNCC(F)(F)F)n4)cc23)CC1` [Example 40, 3-[1-(ethylsulfonyl)-4-piperidinyl]-5-(2-{[(2,2,2-trifluoroethyl)amino]methyl}-1,3-thiazol-4-yl)-1H-indole-7-carboxamide trifluoroacetate], the inhibition at 0.3 µM in assay [1] lay in the range of 0 to 60%. Also, the IC50 in assay [2] was at most 10 µM.

Consider `CCS(=O)(=O)N1CCC(c2c[nH]c3c(C(N)=O)cc(-c4csc(CN(C)C5CCN(C)CC5)c4)cc23)CC1` [Example 42, 3-[1-(ethylsulfonyl)-4-piperidinyl]-5-(5-{[methyl(1-methyl-4-piperidinyl)amino]methyl}-3-thienyl)-1H-indole-7-carboxamide trifluoroacetate], for which the IC50 in assay [1] was at most 1.5 µM; in assay [2], at most 10 µM.

On to `CCS(=O)(=O)N1CCC(c2c[nH]c3c(C(N)=O)cc(-c4csc(CN(C)CCC#N)c4)cc23)CC1` [Example 43, 5-(5-{[(2-cyanoethyl)(methyl)amino]methyl}-3-thienyl)-3-[1-(ethylsulfonyl)-4-piperidinyl]-1H-indole-7-carboxamide trifluoroacetate], for which the IC50 in assay [1] is at most 1.5 µM; in assay [2], at most 10 µM.

For the compound `CCS(=O)(=O)N1CCC(c2c[nH]c3c(C(N)=O)cc(-c4csc(CN(C)CC(N)=O)c4)cc23)CC1` [Example 44, 5-(5-{[(2-amino-2-oxoethyl)(methyl)amino]methyl}-3-thienyl)-3-[1-(ethylsulfonyl)-4-piperidinyl]-1H-indole-7-carboxamide trifluoroacetate], the results for the IC50 in assay [1] and in assay [2] were at most 1.5 µM and at most 10 µM, respectively.
